# Assay results taken from ChEMBL document CHEMBL1201862, “PubChem BioAssay data set” (2004).
# The source made the active and inactive calls.
# Columns and labels:
# [1] = molecular target: T1, Ubiquitin-conjugating enzyme E2 N (Homo sapiens, UniProt P61088); type: functional
# T1 sequence (P61088 whole entry): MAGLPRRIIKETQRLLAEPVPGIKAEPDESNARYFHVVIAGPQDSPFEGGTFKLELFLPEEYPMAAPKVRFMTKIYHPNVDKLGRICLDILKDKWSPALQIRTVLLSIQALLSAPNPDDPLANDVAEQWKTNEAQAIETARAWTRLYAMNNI
# [2] = molecular target: T1, Ubiquitin-conjugating enzyme E2 N; type: functional; remark: listed apart in the source
# Bcl-2-related protein A1 = molecular target: T2, Bcl-2-related protein A1 (Mus musculus, UniProt Q07440); type: functional;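 note: confirmatory dose–response counterscreen on Bfl-1, used to check hits from a UBC13 polyubiquitin inhibitor campaign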
# T2 sequence (Q07440 whole entry): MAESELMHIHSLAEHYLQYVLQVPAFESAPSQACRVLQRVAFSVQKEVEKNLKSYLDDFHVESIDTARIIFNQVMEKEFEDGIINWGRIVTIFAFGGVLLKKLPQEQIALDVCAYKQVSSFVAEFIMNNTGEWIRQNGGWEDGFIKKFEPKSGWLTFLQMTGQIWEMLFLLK
# [3] = molecular target: Alkaline phosphatase, placental type (Homo sapiens, UniProt P05187); assay: PLAP enzyme inhibitors, confirmation, biochemical, luminescence (AID 1512); type: functional
# [4] = molecular target: T3, Alkaline phosphatase, tissue-nonspecific isozyme (Homo sapiens, UniProt P05186); assay: human TNAP enzyme inhibitors, SAR follow-up, biochemical, luminescent, dose response (AID 1056)
# T3 sequence (P05186 whole entry): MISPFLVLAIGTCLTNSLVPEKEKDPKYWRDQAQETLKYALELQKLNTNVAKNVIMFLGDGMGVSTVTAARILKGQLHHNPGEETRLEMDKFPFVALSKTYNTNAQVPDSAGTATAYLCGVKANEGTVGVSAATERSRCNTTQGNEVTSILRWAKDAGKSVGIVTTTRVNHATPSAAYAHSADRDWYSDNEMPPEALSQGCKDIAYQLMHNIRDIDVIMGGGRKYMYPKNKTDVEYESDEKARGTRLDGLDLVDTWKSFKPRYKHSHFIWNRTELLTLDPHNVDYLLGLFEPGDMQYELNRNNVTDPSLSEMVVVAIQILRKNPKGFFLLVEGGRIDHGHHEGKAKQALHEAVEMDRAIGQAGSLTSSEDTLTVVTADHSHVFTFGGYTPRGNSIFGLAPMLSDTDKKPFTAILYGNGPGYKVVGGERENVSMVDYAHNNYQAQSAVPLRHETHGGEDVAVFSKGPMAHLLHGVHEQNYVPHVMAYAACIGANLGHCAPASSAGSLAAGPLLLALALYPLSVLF
# [5] = molecular target: DNA dC->dU-editing enzyme APOBEC-3G (Homo sapiens, UniProt Q9HC16); type: functional;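 note: Dose-response counterscreen measuring inhibition of APOBEC3G DNA deaminase activity, run while confirming APOBEC3A inhibitors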
# [6] = molecular target: DNA dC->dU-editing enzyme APOBEC-3A (Homo sapiens, UniProt P31941); assay: Dose Response confirmation of small molecule APOBEC3A DNA Deaminase Inhibitors via a fluorescence-based single-stranded DNA deaminase assay. [Related pubchem assays (depositor defined):AID493011, AID493024]; type: functional
# Troponin, cardiac muscle = Troponin, cardiac muscle (Homo sapiens, UniProt P19429+P45379+P63316); assay: Fluorescence-based biochemical high throughput dose response assay for activators of the calcium sensitivity of cardiac Regulated Thin Filaments (RTF). [Related pubchem assays (depositor defined):AID493008, AID493018, AID504382, AID504383]; type: protein-complex assay
# [7] = molecular target: T4, G-protein coupled receptor 55 (Homo sapiens, UniProt Q9Y2T6); assay: GPR55 antagonists blocking LPI-driven arrestin recruitment, primary screen, imaging, U2OS, beta-arrestin-GFP, LPI agonist (AID 2013); type: functional;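 note: antagonist potency measured as reduced agonist-driven arrestin aggregation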
# [8] = molecular target: Glyceraldehyde-3-phosphate dehydrogenase (Homo sapiens, UniProt P04406)
# Cytochrome P450 2C9 = Cytochrome P450 2C9 (Homo sapiens, UniProt P11712)
# [9] = molecular target: T5, RNA-binding protein pos-1 (Caenorhabditis elegans, UniProt G5EF15); assay: inhibitors of POS-1/mex-3 RNA binding, dose response, biochemical, fluorescence polarization (AID 1964);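 note: purified POS-1 fused to maltose binding protein made in E. coli; potency of compounds blocking POS-1 binding to fluorescent RNA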
# T5 sequence (G5EF15 whole entry): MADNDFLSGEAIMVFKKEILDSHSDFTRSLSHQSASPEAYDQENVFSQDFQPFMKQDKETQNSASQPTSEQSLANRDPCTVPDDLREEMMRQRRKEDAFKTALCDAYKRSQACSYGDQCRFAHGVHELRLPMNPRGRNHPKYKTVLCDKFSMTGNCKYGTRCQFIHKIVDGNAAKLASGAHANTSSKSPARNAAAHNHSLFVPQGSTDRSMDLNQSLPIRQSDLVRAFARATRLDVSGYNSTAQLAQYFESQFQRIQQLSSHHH
# Cytochrome P450 1A2 = molecular target: T6, Cytochrome P450 1A2 (Homo sapiens, UniProt P05177);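 note: PubChem cytochrome P450 panel assay, CYP1A2 panel member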
# T6 sequence (P05177 whole entry): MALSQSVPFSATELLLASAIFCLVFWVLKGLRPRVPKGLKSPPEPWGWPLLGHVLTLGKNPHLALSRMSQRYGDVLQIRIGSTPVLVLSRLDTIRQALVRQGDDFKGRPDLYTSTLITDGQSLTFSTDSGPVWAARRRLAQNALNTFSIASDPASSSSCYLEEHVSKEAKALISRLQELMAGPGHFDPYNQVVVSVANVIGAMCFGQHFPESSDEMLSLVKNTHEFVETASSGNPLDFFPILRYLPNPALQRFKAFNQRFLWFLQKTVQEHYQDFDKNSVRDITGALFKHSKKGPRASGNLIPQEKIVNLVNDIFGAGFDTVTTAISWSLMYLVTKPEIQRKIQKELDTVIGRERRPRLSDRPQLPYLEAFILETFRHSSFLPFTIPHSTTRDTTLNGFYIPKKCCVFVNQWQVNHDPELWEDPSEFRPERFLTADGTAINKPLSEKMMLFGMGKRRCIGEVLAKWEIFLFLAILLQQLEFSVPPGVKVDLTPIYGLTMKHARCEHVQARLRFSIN
# [10] = molecular target: T7, Zinc finger protein mex-5 (Caenorhabditis elegans, UniProt Q9XUB2); assay: MEX-5/TCR-2 RNA interaction inhibitors, dose response, biochemical, C. elegans, fluorescence polarization (AID 1960)
# T7 sequence (Q9XUB2 whole entry): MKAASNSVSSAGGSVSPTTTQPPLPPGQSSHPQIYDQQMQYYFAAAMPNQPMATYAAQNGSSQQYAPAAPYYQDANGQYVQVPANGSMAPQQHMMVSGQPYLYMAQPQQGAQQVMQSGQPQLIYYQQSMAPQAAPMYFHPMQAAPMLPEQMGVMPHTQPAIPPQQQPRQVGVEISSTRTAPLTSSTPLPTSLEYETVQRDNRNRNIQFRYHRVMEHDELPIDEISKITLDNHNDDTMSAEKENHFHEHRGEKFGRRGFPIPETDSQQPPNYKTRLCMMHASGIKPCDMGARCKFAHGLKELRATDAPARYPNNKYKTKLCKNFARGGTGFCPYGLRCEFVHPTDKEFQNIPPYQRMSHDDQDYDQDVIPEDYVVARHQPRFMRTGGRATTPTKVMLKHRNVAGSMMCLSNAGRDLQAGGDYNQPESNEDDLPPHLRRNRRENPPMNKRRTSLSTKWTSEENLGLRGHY
# Cytochrome P450 2C19 = Cytochrome P450 2C19 (Homo sapiens, UniProt P33261); assay: Cytochrome panel assay with activity outcomes. Panel member name: p450-cyp2c19 Compounds with AC50 equal or less than 10 uM are considered active; type: functional; settings: read-out: AC50
# [11] = molecular target: T8, Corticotropin-releasing factor receptor 2/Corticotropin-releasing factor-binding protein (Homo sapiens, UniProt P24387+Q13324); assay: activators of CRF receptor 2 with binding protein – uHTS hits, confirmation (AID 602473); type: functional; settings: read-out: EC50_Mean
# T8 sequence (Q13324 whole entry): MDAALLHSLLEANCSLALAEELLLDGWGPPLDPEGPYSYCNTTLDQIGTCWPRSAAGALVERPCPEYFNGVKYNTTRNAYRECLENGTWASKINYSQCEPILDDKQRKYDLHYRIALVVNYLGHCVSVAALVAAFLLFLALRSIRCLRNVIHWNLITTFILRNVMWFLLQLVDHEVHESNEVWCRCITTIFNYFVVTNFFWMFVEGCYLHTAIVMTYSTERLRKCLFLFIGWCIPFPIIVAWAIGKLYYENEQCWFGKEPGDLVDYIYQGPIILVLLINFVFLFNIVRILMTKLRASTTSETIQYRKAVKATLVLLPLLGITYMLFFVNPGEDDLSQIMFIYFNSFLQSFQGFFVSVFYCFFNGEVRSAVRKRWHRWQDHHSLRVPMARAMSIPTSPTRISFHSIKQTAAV
# T8 sequence (P24387 whole entry): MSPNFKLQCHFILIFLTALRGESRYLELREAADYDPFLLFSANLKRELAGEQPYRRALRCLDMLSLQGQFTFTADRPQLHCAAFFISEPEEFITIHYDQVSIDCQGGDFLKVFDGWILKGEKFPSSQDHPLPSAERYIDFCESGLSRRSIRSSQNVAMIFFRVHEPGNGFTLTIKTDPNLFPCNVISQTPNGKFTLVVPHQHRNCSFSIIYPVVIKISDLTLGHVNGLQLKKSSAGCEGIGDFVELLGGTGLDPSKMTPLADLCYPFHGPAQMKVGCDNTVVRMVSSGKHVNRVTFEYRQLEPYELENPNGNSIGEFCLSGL
# [12] = molecular target: T4, G-protein coupled receptor 55; assay: GPR55 agonists via beta-arrestin recruitment, primary screen, imaging, U2OS cells, beta-arrestin-GFP redistribution (AID 1961); type: functional
# [13] = microbe, parasite or virus in culture; type: functional; settings: Mycobacterium tuberculosis
# [14] = molecular target: T9, Carboxy-terminal domain RNA polymerase II polypeptide A small phosphatase 1 (Homo sapiens, UniProt Q9GZU7); assay: inhibitors of CTDSP1, concentration-response testing, biochemical assay, absorbance-based, actives from ultra-high-throughput screening (AID 540297); type: functional
# T9 sequence (Q9GZU7 whole entry): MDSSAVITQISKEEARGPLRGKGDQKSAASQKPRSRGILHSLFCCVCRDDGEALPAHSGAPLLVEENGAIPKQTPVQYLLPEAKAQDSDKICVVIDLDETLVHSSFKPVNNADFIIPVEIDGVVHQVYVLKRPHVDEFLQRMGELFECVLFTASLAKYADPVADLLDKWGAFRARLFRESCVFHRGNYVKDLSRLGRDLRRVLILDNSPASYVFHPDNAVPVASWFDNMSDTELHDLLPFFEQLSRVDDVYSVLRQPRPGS
# Caspase-6 = molecular target: T10, Caspase-6 (Homo sapiens, UniProt P55212); assay: human caspase-6 inhibitors, dose response, biochemical, VEID-R110 fluorescence, cherry-pick (AID 720632)
# T10 sequence (P55212 whole entry): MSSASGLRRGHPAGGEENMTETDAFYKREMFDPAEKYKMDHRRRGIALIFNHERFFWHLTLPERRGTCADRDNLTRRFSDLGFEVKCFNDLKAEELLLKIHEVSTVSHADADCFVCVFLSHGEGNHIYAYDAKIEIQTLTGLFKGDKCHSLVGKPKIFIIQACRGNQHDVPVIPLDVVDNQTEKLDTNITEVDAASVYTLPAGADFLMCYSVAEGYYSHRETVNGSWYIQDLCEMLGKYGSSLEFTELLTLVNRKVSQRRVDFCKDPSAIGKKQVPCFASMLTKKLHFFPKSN
# Chain of DNA dC->dU-editing enzyme APOBEC-3G (Q9HC16 whole entry): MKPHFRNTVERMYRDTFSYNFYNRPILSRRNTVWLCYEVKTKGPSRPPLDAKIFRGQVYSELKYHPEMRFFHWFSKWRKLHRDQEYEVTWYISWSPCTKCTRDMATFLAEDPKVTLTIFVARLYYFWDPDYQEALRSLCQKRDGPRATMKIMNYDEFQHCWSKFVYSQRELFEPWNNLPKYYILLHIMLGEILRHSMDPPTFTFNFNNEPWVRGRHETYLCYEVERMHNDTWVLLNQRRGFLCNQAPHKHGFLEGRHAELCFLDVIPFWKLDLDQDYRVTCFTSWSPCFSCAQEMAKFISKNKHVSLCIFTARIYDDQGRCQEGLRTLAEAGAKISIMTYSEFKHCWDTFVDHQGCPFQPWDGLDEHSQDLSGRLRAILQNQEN
# Chain of Glyceraldehyde-3-phosphate dehydrogenase (P04406 whole entry): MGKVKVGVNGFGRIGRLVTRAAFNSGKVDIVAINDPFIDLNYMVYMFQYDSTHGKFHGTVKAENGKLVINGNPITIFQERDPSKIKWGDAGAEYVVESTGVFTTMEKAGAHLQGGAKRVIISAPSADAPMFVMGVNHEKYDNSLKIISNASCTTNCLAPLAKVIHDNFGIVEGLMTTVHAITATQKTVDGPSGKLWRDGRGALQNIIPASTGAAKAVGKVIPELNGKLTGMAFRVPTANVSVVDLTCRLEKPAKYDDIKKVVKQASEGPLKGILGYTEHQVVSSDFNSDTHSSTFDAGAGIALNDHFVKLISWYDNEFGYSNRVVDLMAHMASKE
# Chain of Alkaline phosphatase, placental type (P05187 whole entry): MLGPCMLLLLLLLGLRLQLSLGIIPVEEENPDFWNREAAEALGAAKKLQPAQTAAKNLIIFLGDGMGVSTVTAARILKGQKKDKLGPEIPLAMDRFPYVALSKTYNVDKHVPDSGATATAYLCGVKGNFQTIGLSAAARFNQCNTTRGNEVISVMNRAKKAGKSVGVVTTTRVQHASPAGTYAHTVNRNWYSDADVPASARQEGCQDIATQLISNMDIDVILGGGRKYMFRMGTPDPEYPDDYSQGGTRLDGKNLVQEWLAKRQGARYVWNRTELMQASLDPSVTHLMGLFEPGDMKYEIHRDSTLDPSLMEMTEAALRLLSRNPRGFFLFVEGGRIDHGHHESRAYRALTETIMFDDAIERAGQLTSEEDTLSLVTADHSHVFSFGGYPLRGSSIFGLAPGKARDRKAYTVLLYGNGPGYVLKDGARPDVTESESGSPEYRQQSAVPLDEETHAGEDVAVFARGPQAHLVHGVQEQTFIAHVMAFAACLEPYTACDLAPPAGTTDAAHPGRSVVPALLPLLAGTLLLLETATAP
# T4 sequence (Q9Y2T6 whole entry): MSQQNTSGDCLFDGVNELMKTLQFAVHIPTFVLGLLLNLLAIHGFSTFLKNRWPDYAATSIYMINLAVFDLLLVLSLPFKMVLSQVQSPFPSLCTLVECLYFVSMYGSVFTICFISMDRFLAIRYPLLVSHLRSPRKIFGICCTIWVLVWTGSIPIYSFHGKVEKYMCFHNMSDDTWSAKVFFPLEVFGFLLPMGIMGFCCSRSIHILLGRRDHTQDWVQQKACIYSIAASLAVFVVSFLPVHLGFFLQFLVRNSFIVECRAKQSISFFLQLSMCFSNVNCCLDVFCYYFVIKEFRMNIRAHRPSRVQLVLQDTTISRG
# Chain of DNA dC->dU-editing enzyme APOBEC-3A (P31941 whole entry): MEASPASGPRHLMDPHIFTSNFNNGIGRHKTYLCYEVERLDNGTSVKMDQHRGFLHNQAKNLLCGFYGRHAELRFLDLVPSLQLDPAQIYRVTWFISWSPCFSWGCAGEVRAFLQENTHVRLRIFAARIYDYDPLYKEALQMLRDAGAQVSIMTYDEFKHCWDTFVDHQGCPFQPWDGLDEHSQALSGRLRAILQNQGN
# Chain of Cytochrome P450 2C9 (P11712 whole entry, the tested form may be a part): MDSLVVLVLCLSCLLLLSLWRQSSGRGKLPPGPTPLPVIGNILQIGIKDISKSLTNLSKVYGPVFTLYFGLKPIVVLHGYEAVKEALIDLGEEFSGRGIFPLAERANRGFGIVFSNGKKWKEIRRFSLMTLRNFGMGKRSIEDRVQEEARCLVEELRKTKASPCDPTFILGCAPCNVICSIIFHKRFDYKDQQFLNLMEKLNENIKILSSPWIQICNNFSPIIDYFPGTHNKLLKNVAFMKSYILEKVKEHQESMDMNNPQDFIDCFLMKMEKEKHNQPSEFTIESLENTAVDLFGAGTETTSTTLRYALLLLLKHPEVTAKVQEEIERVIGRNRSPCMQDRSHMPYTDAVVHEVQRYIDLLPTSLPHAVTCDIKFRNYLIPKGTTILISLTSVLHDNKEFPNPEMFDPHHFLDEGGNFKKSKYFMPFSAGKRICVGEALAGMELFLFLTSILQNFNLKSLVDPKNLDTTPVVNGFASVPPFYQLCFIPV
# Chain of Cytochrome P450 2C19 (P33261 whole entry): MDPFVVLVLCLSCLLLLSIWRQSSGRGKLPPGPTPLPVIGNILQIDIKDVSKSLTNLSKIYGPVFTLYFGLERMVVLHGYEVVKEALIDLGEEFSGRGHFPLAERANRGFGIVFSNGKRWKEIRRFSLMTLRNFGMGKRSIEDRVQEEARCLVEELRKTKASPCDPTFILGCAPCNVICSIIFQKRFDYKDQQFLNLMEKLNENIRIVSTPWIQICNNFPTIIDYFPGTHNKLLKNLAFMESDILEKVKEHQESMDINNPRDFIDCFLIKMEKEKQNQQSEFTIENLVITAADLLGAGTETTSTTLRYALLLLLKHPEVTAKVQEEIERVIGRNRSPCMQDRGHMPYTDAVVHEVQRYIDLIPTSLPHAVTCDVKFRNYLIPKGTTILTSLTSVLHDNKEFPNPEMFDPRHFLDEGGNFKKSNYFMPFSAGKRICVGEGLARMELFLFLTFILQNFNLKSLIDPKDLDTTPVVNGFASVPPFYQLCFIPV
smiles,measurement,setting,value
CC1(C)Cc2c(sc(NC(=O)C(=O)NCCCN3CCOCC3)c2C(N)=O)CO1,IC50,[1],7.92 µM (active)
same,IC50,[2],2.14 µM (active)
same,IC50,Bcl-2-related protein A1,> 20 µM (inactive)
Cc1ccc(C)c(NC(=S)NC(NC(=O)Cc2cccc3ccccc23)C(Cl)(Cl)Cl)c1 (centres undefined),IC50,[3],11.5 µM (active)
same,IC50,[4],> 100 µM (inactive)
COC(=O)C1=C(C)N(Cc2ccccc2)C(NCc2ccc(OC)cc2)=N[C@H]1c1ccccc1,IC50,[5],10.8 µM (active)
same,IC50,[6],5.01 µM (active)
O=C(/C=C/c1cn(CC(O)CN2CCCCC2)c2ccccc12)c1cccs1 (centres undefined),EC50,"Troponin, cardiac muscle",17.9 µM (inactive)
COc1ccc(C23CC4CC(CC(C4)C2)C3)cc1C(=O)NCCN(C)C,IC50,[7],1.37 µM (active)
COc1ccc(-c2c(-c3ccc(OCC(=O)NN)cc3O)n[nH]c2C(F)(F)F)cc1,IC50,[7],2.75 µM (active)
CC1(C)CC(=O)c2c(-c3ccc(F)cc3)n[nH]c2C1,IC50,[3],> 100 µM (inactive)
same,IC50,[4],5.95 µM (active)
same,IC50,[8],> 100 µM (not active)
O=C(NNC(=S)NC(=O)c1ccccc1[N+](=O)[O-])c1ccccc1[N+](=O)[O-],IC50,[3],> 100 µM (inactive)
COc1ccc(C(=O)Nc2cc(C(C)=O)c(/C=C/N(C)C)oc2=O)cc1,AC50,Cytochrome P450 2C9,22.4 µM (inconclusive)
same,EC50,[9],54.1 µM (active)
same,AC50,Cytochrome P450 1A2,15.8 µM (inconclusive)
same,EC50,"Troponin, cardiac muscle",10.5 µM (inactive)
same,EC50,[10],54.8 µM (active)
same,AC50,Cytochrome P450 2C19,10 µM (inconclusive)
same,EC50,[11],6.69 µM (active)
O=C1c2ccccc2C(=O)N1c1nncs1,IC50,[4],> 100 µM (inactive)
same,IC50,[8],> 100 µM (not active)
COC(=O)C1=C(C)N(CC2CC2)C(=NCCN2CCOCC2)N[C@H]1c1ccccc1,IC50,[5],4.91 µM (active)
same,IC50,[6],5.16 µM (active)
COc1ccc(-c2csc3nc(-c4ccccc4OC)oc(=O)c23)cc1,EC50,[12],25 µM (inactive)
same,CC50,[13],30.8 µM (active)
O=C(O)c1cc(NS(=O)(=O)c2ccc(NC3CCCCC3)c([N+](=O)[O-])c2)cc(C(=O)O)c1,IC50,[7],5.62 µM (active)
Sc1nc(-c2ccc(Cl)cc2Cl)n[nH]1,IC50,[3],> 100 µM (inactive)
same,IC50,[4],> 100 µM (inactive)
same,IC50,[8],> 100 µM (not active)
COc1ccc(/C=N/NC(=O)c2cc(C34CC5CC(CC(C5)C3)C4)[nH]n2)cc1OC,IC50,[7],2.74 µM (active)
O=C1C2C(C(=O)N1/N=C/c1cc([N+](=O)[O-])c(O)cc1O)C1C=CC2C12CC2 (centres undefined),IC50,[14],4.9 µM (active)
same,AC50,Caspase-6,3.41 µM (active)
same,IC50,[5],40.2 µM (active)
same,IC50,[6],11.3 µM (active)
O=C(CO/N=C/c1ccccc1OC(F)F)NCc1cccs1,EC50,"Troponin, cardiac muscle",> 71.5 µM (inactive)
Cc1c2ccccc2cc(Cc2ccccc2)[n+]1C,IC50,[5],2.98 µM (active)
same,IC50,[6],3.64 µM (active)
